Common to all, as to assay: DTP human tumour cell line panel, 48 h
Experiment [1] has as its system A498.
Experiment [2] has as its system ACHN.
Experiment [3] concerns BT-549.
In experiment [4] the test system is CCRF-CEM.
Experiment [5] deals with DU-145.
Experiment [6] has as its system HOP-62.
Experiment [7] deals with LOX IMVI.
In experiment [8] the test system is M14.
The test system of experiment [9] is MDA-MB-231.
Experiment [10] concerns MDA-MB-435.
Experiment [11] relates to OVCAR-4.
Experiment [12] concerns RXF 393.
Experiment [13] relates to SF-295.
The subject of experiment [14] is SK-MEL-28.
Experiment [15] has as its system SK-MEL-2.
The subject of experiment [16] is SK-MEL-5.
The subject of experiment [17] is SK-OV-3.
Experiment [18] concerns T47D.
Experiment [19] deals with UO-31.

This is an account of results in ChEMBL document CHEMBL1201862, “PubChem BioAssay data set” (2004).

SMILES strings stand for the structures.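 Protocol summary: plate cells (96-well), add compound at 5 concentrations, incubate 48 h, interpolate endpoints linearly. GI50 marks 50% less growth.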 Activity calls are given as the source filed them. No stated cut-off is given here; in the data, active = GI50 up to about 1.1 µM and inactive = higher. Where a SMILES comes first, the peptide text is derived from it. [ ]: non-standard residue; d: D form. The star is where a group is joined. ξ: configuration not given here. Propanoyl(3-(4-MeO-Ph)) = COc1ccc(CCC(=O)*)cc1; Thr(3ξ) = CC(O)[C@H](N)C(=O)O; dNMeL = CN[C@H](CC(C)C)C(=O)O; OBn = c1ccc(CO*)cc1; ξLac = CC(O)C(=O)O

Turning to `CC1(C)OC(=S)N(c2ccccc2)C12C=Cc1cc3ccccc3cc1O2` (stereo not drawn), the GI50 in [1], in experiment [2], in experiment [3], in experiment [4], in experiment [5] and in [6] was > 100 µM (inactive) throughout. Further, the GI50 in experiment [7], in experiment [8], in [9], in [10], in [11] and in experiment [12] was > 100 µM (inactive) in each case. For the same compound, the GI50 in [13], in [14], in [15], in [16], in [17] and in experiment [18] was > 100 µM (inactive) each time. For the same compound, the GI50 (usually the concentration that inhibits growth by half) in experiment [19] was > 100 µM (inactive).

Turning to `O=C1c2ccccc2-c2ccc(NC(=O)C3CCCCC3C(=O)O)cc21` (stereo not drawn), the GI50 in experiment [1], in experiment [2], in experiment [3], in [4], in [5] and in experiment [6] was > 100 µM (inactive) in each case. In addition, the GI50 in experiment [7], in experiment [8], in [9], in experiment [10], in experiment [11] and in experiment [12] was > 100 µM (inactive) each time. Also, the GI50 in experiment [13], in experiment [14], in experiment [15], in [16], in [17] and in experiment [18] was > 100 µM (inactive) each time. Also, in experiment [19], the GI50 is > 100 µM (inactive).

With `O=C1CSC(c2cc3cc(Br)ccc3nc2Cl)N1c1ccc(F)c(Cl)c1` (stereo not drawn), the GI50 was > 50 µM (inactive) in experiment [1]; > 50 µM (inactive) in experiment [2]; > 50 µM (inactive) in [3]; 13.1 µM (inactive) in [4]; > 50 µM (inactive) in experiment [5]; > 50 µM (inactive) in experiment [6]. Further, the GI50 was 22.9 µM (inactive) in experiment [7]; > 50 µM (inactive) in [8]; > 50 µM (inactive) in experiment [9]; 25.1 µM (inactive) in experiment [10]; > 50 µM (inactive) in experiment [11]; > 50 µM (inactive) in experiment [12]. The GI50 in experiment [13] is > 50 µM (inactive); in experiment [14], > 50 µM (inactive); in experiment [15], > 50 µM (inactive); in experiment [16], > 50 µM (inactive); in [17], > 50 µM (inactive); in experiment [18], 31.4 µM (inactive). For the same compound, the GI50 in [19] was > 50 µM (inactive).

Turning to `O=C(/C=C/c1cccc2ccccc12)c1ccccc1`, the GI50 was 17.4 µM (inactive) in experiment [1]; 13.9 µM (inactive) in experiment [2]; 13.2 µM (inactive) in [3]; 3.28 µM (inactive) in [4]; 14.8 µM (inactive) in experiment [5]; 19.8 µM (inactive) in experiment [6]. Further, the GI50 in experiment [7] was 1.99 µM (inactive); in [8] it was 14.6 µM (inactive); in [9] it was 8.93 µM (inactive); in experiment [10], 8.81 µM (inactive); in [11], 12.9 µM (inactive); in experiment [12] it was 10.9 µM (inactive). In addition, the GI50 in experiment [13] was 16.5 µM (inactive); in experiment [14] it was 17.7 µM (inactive); in experiment [15] it was 14 µM (inactive); in experiment [16], 12.5 µM (inactive); in [17], 16.3 µM (inactive); in experiment [18] it was 11.7 µM (inactive). For the same compound, in experiment [19], the GI50 was 11.6 µM (inactive).

Consider `COc1ccc(CCC(=O)OC(C)[C@H](NC(=O)[C@@H](CC(C)C)N(C)C(=O)[C@@H]2CCCN2C(=O)C(C)O)C(=O)OCc2ccccc2)cc1` (stereo partly drawn) (H-[ξLac]P[dNMeL][Thr(3ξ)](Propanoyl(3-(4-MeO-Ph)))-OBn), for which the GI50 was 28.7 µM (inactive) in experiment [1]; 41.6 µM (inactive) in experiment [2]; 43.6 µM (inactive) in experiment [3]; 26.9 µM (inactive) in experiment [4]; 62.5 µM (inactive) in experiment [5]; 99.8 µM (inactive) in experiment [6]. Besides, the GI50 in [7] is 17.9 µM (inactive); in [8], 16.9 µM (inactive); in experiment [9], 19.3 µM (inactive); in experiment [10], 21.8 µM (inactive); in experiment [11] it was 73.8 µM (inactive); in experiment [12], 22.1 µM (inactive). Also, the GI50 in [13] is 35.2 µM (inactive); in [14] it was 17.8 µM (inactive); in [15], 16.7 µM (inactive); in [16], 15.5 µM (inactive); in [17] it was 84.1 µM (inactive); in experiment [18], 33.6 µM (inactive). For the same compound, in [19], the GI50 was 40.5 µM (inactive).

For the compound `COC(=O)[C@@H](NC(=O)c1ccc(CNC(=O)/C(C)=C/c2ccccc2)cc1)C(C)C`, the GI50 is > 100 µM (inactive) in experiment [1]; > 100 µM (inactive) in experiment [2]; > 100 µM (inactive) in experiment [3]; 4.71 µM (inactive) in [4]; > 100 µM (inactive) in [5]; > 100 µM (inactive) in [6]. In addition, the GI50 in experiment [7] is 59.2 µM (inactive); in [8], 61.2 µM (inactive); in experiment [9] it was > 100 µM (inactive); in experiment [10] it was 70 µM (inactive); in [11] it was 56.8 µM (inactive); in experiment [12], 79.6 µM (inactive). The GI50 in [13] was > 100 µM (inactive); in [14] it was 40.8 µM (inactive); in [15], 51.1 µM (inactive); in experiment [16], 68.4 µM (inactive); in [17] it was > 100 µM (inactive); in experiment [18], 56.2 µM (inactive). For the same compound, the GI50 in [19] was > 100 µM (inactive).

For `O=C1C(CN2CCCC2)CCCC1CN1CCCC1` (stereo not drawn), the GI50 was 20.7 µM (inactive) in [1]; 1.82 µM (inactive) in experiment [2]; 1.87 µM (inactive) in experiment [3]; 0.0318 µM (active) in experiment [4]; 19.8 µM (inactive) in experiment [5]; > 49.8 µM (inactive) in [6]. Moreover, the GI50 in experiment [7] was 2.52 µM (inactive); in [8], 1.74 µM (inactive); in [9], 15.8 µM (inactive); in experiment [10] it was 2.76 µM (inactive); in [11] it was 5.75 µM (inactive); in [12], 2.69 µM (inactive). Besides, the GI50 in [13] is > 38.7 µM (inactive); in experiment [14] it was 3.85 µM (inactive); in [15] it was 18.5 µM (inactive); in experiment [16] it was 16.6 µM (inactive); in experiment [17], 17.4 µM (inactive); in [18], 2.56 µM (inactive). The GI50 in [19] was 0.791 µM (active).
